Measured values published in ChEMBL document CHEMBL2021794, “Synthesis, σ₁, σ₂-receptors binding affinity and antiproliferative action of new C1-substituted adamantanes” (Bioorg Med Chem, 2012).

Columns and labels:
HCT-116 = assay: Growth inhibition of human HCT116 cells after 48 hrs by SRB assay; type: functional; settings: HCT-116, 48 h; for CC50: read-out: LC50 (the source's name)
MCF7 = assay: Growth inhibition of human MCF7 cells after 48 hrs by SRB assay; type: functional; settings: MCF7, 48 h; for CC50: read-out: LC50 (the source's name)
OVCAR-5 = assay: Growth inhibition of human OVCAR5 cells after 48 hrs by SRB assay; type: functional; settings: OVCAR-5, 48 h; for CC50: read-out: LC50 (the source's name)
SF-268 = assay: Growth inhibition of human SF268 cells after 48 hrs by SRB assay; type: functional; settings: SF-268, 48 h; for CC50: read-out: LC50 (the source's name)
NCI-H460 = assay: Growth inhibition of human NCI-H460 cells after 48 hrs by SRB assay; type: functional; settings: NCI-H460, 48 h
MIA PaCa-2 = assay: Growth inhibition of human MIAPaCa2 cells after 48 hrs by SRB assay; type: functional; settings: MIA PaCa-2, 48 h; for CC50: read-out: LC50 (the source's name)
BXPC-3 = assay: Growth inhibition of human BxPC3 cells after 48 hrs by SRB assay; type: functional; settings: BXPC-3, 48 h
SK-HEP1 = assay: Growth inhibition of human SKHEP1 cells after 48 hrs by SRB assay; type: functional; settings: SK-HEP1, 48 h; for CC50: read-out: LC50 (the source's name)
[1] = (§1) Growth inhibition of HUVEC cells after 48 hrs by SRB assay; type: cell-based; settings: human, HUVEC cells
HUVEC = assay: as §1; type: cell-based; settings: human, huvec, 48 h
[2] = target: Sigma non-opioid intracellular receptor 1 (Homo sapiens, UniProt Q99720); assay: Displacement of [3H](+)pentazocine from sigma-1 receptor expressed in human Jurkat cell membranes after 2 hrs by liquid scintillation spectroscopy
[3] = Displacement of [3H](+)1-DTG from sigma-2 receptor expressed in rat cerebral cortex membranes after 2 hrs by liquid scintillation spectroscopy; type: cell membranes, Membrane
[4] = Displacement of [3H]BTX-B from Na+ channel site 2 after 60 mins by liquid scintillation spectroscopy
[5] = Selectivity ratio of IC50 for human sigma-1 receptor to IC50 for rat sigma-2 receptor
HCT-15 = assay: Growth inhibition of human HCT15 cells after 48 hrs by SRB assay; type: functional; settings: HCT-15, 48 h
IGROV-1 = assay: Growth inhibition of human IGROV1 cells after 48 hrs by SRB assay; type: functional; settings: IGROV-1, 48 h
DMS-114 = assay: Growth inhibition of human DMS114 cells after 48 hrs by SRB assay; type: functional; settings: DMS-114, 48 h
HL-60(TB) = assay: Growth inhibition of human HL-60(TB) cells after 48 hrs by SRB assay; type: functional; settings: HL-60, 48 h
LOX IMVI = assay: Growth inhibition of human LOXIMVI cells after 48 hrs by SRB assay; type: functional
[6] = Growth inhibition of human MSC cells after 48 hrs by SRB assay; type: cell-based
[7] = (§2) Growth inhibition of NHDF cells after 48 hrs by SRB assay; type: cell-based; settings: human, NHDF cells
NHDF = assay: as §2; type: cell-based; settings: human, nhdf, 48 h
[8] = read-out: LC50 (the source's name)

Sigma non-opioid intracellular receptor 1, sequence (Q99720 whole entry): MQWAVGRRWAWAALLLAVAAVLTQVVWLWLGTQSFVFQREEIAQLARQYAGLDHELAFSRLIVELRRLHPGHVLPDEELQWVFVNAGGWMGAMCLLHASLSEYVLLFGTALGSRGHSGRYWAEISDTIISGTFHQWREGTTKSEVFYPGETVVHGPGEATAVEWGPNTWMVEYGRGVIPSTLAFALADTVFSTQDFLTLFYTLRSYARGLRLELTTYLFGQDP

c1ccc(CN2CCN(c3ccc(C(c4ccccc4)C45CC6CC(CC(C6)C4)C5)cc3)CC2)cc1 (stereo unspecified)
GI50 (HCT-116): 12 µM | TGI (HCT-116): 100 µM | CC50 (HCT-116): 100 µM | GI50 (MCF7): 22.3 µM | TGI (MCF7): 99.4 µM | CC50 (MCF7): 100 µM | GI50 (OVCAR-5): 84.3 µM | TGI (OVCAR-5): 100 µM | CC50 (OVCAR-5): 100 µM | CC50 (SF-268): 100 µM | GI50 (NCI-H460): 54.7 µM | LC50 (concentration killing 50% of cells) (NCI-H460): 100 µM | TGI (NCI-H460): 100 µM | GI50 (MIA PaCa-2): 14.9 µM | TGI (MIA PaCa-2): 100 µM | CC50 (MIA PaCa-2): 100 µM | GI50 (BXPC-3): 7.51 µM | LC50 (BXPC-3): 100 µM | TGI (BXPC-3): 52.1 µM | GI50 (SK-HEP1): 23.5 µM | TGI (SK-HEP1): 100 µM | CC50 (SK-HEP1): 100 µM | GI50 at 48 h [1]: 76.8 µM | LC50 (HUVEC): 100 µM | TGI (HUVEC): 100 µM | IC50 [2]: 0.0633 µM | IC50 [3]: 0.119 µM | IC50 [4]: 1.6 µM | Ratio IC50 [5]: 1.9

c1ccc(C(c2ccc(N3CCN(C4CCCCC4)CC3)cc2)C23CC4CC(CC(C4)C2)C3)cc1 (stereo unspecified)
GI50 (HCT-116): 22.2 µM | TGI (HCT-116): 100 µM | CC50 (HCT-116): 100 µM | GI50 (MCF7): 8.7 µM | TGI (MCF7): 55 µM | CC50 (MCF7): 100 µM | GI50 (OVCAR-5): 55.4 µM | TGI (OVCAR-5): 98.2 µM | CC50 (OVCAR-5): 100 µM | GI50 (SF-268): 53.1 µM | TGI (SF-268): 99.8 µM | CC50 (SF-268): 100 µM | GI50 (NCI-H460): 47.3 µM | LC50 (concentration killing 50% of cells) (NCI-H460): 100 µM | TGI (NCI-H460): 100 µM | GI50 (MIA PaCa-2): 20.2 µM | TGI (MIA PaCa-2): 66.1 µM | CC50 (MIA PaCa-2): 100 µM | GI50 (BXPC-3): 8.58 µM | LC50 (BXPC-3): 100 µM | TGI (BXPC-3): 76.8 µM | IC50 [2]: 0.00027 µM | IC50 [3]: 0.097 µM | IC50 [4]: 0.7 µM | Ratio IC50 [5]: 360

c1ccc(C(c2ccc(N3CCOCC3)cc2)C23CC4CC(CC(C4)C2)C3)cc1 (stereo unspecified)
TGI (HCT-116): 100 µM | CC50 (HCT-116): 100 µM | TGI (MCF7): 100 µM | CC50 (MCF7): 100 µM | TGI (OVCAR-5): 100 µM | CC50 (OVCAR-5): 100 µM | CC50 (SF-268): 100 µM | LC50 (concentration killing 50% of cells) (NCI-H460): 100 µM | TGI (NCI-H460): 100 µM | LC50 (BXPC-3): 100 µM | TGI (BXPC-3): 100 µM | IC50 [2]: > 0.1 µM | IC50 [3]: > 1 µM | IC50 [4]: > 10 µM

c1ccc(C(c2ccc(N3CCNCC3)cc2)C23CC4CC(CC(C4)C2)C3)cc1 (stereo unspecified)
GI50 (HCT-116): 3.67 µM | TGI (HCT-116): 6.54 µM | CC50 (HCT-116): 9.41 µM | GI50 (HCT-15): 3.4 µM | LC50 (HCT-15): 8.9 µM | TGI (HCT-15): 6.15 µM | GI50 (MCF7): 2.49 µM | TGI (MCF7): 5.59 µM | CC50 (MCF7): 8.68 µM | GI50 (IGROV-1): 3.32 µM | TGI (IGROV-1): 6.1 µM | CC50 (IGROV-1; [8]): 8.89 µM | GI50 (OVCAR-5): 4.27 µM | TGI (OVCAR-5): 7.33 µM | CC50 (OVCAR-5): 10.4 µM | GI50 (SF-268): 3.45 µM | TGI (SF-268): 6.11 µM | CC50 (SF-268): 8.76 µM | GI50 (NCI-H460): 3.74 µM | LC50 (concentration killing 50% of cells) (NCI-H460): 9.7 µM | TGI (NCI-H460): 6.72 µM | GI50 (DMS-114): 3.97 µM | TGI (DMS-114): 6.51 µM | CC50 (DMS-114; [8]): 9.05 µM | GI50 (HL-60(TB)): 5.97 µM | LC50 (HL-60(TB)): 100 µM | TGI (HL-60(TB)): 9.92 µM | GI50 (BXPC-3): 3.61 µM | LC50 (BXPC-3): 9.05 µM | TGI (BXPC-3): 6.33 µM | GI50 (SK-HEP1): 3.91 µM | TGI (SK-HEP1): 6.48 µM | CC50 (SK-HEP1): 9.04 µM | GI50 (LOX IMVI): 2.79 µM | LC50 (concentration killing 50% of cells) (LOX IMVI): 8.11 µM | TGI (LOX IMVI): 5.45 µM | GI50 at 48 h [1]: 4.8 µM | LC50 (HUVEC): 100 µM | TGI (HUVEC): 7.62 µM | GI50 at 48 h ([6]; MSC cells): 4.87 µM | LC50 ([6]; msc, 48 h): 9.33 µM | TGI ([6]; msc, 48 h): 7.1 µM | GI50 at 48 h [7]: 2.97 µM | LC50 (NHDF): 9.49 µM | TGI (NHDF): 6.23 µM | IC50 [2]: 0.0124 µM | IC50 [3]: > 1 µM | IC50 [4]: 1.2 µM
